From patent publication US10730771B2, “Method for operating reverse-osmosis membrane treatment system” (priority 2015, dated 2020)

Tested on: microorganisms adhered on the surfaces of test pieces
Assay: Test example I: adhesion of slime (microorganisms, as ATP) to SUS316L test pieces in flow columns
Type: cell-based
Settings: 13 days; for Amount of microorganisms adhered: 1.7 L/min, no treatment 121
Procedure: A test for confirming the capabilities of a combined-chlorine slime-control agent and a stabilized-bromine slime-control agent to reduce the adhesion of slime to the energy recovery device was conducted.
Water produced by treating wastewater from Kurita Global Technology Center of Kurita Water Industries Ltd. was used as test water.
In the testing apparatus, the test water fed from a pipe 20 is split into pipes 21, 22, and 23 and passed through columns 31, 32, and 33 provided with test pieces 31a, 32a, and 33a (3 cm×5 cm test pieces made of SUS316L) fixed to the respective inner walls. FI1, FI2, and FI3 represent a flow meter. V1, V2, and V3 represent a valve.
The test water was passed into the columns 31 to 33 through the branch pipes 21 to 23 at a flow rate of 1.7 L/min for 13 days. While the test water was passed through the testing apparatus, the chemical-1 was injected into the pipe 22 such that the total chlorine concentration measured by the DPD method produced by HACH was 1.0 mg/L (Test No. 2), and the chemical-2 was injected into the pipe 23 such that the total chlorine concentration measured by the same method as in Test No. 2 was 0.8 mg/L (Test No. 3). No chemical (no treatment) was added to the pipe 21 (Test No. 1).
After the test water had been passed through the testing apparatus for 13 days, the test pieces 31a to 33a were removed, and the microorganisms adhered on the surfaces thereof were sampled. The amount of microorganisms adhered on the surface of each of the test pieces was measured with a “Lumitester C-110” produced by Kikkoman Biochemifa Company. The amount of microorganisms was measured as ATP and expressed in the unit of pg/cm^2.

| Molecule | adhesion of microorganisms compared with no treatment (1.0 mg/L as total chlorine) | Amount of microorganisms adhered (Test No. 2, 1.0 mg/L as total chlorine) | adhesion of microorganisms compared with no treatment (0.8 mg/L as total chlorine) | Amount of microorganisms adhered (Test No. 3, 0.8 mg/L as total chlorine) |
| --- | --- | --- | --- | --- |
| O=S(=O)([O-])NCl.[Na+] [NHClSO3Na, sodium monochlorosulfamate] | reduced the adhesion of microorganisms | 49 ATP pg/cm^2 | – | – |
| bromosulfamate [Chemical-2] | – | – | reduced the adhesion of microorganisms | 72 ATP pg/cm^2 |
